Reference: patent publication US7375058B2, “Herbicidal mixtures based on 3-phenyluracils” (priority 2002, dated 2008)
Counter-ions that a name gives are not always drawn.

What was measured:
[1] = test system: GALAP; experiment: Greenhouse post-emergence herbicidal action against GALAP; assay type: in vivo, Galium aparine
Excerpt: (§1) For the post-emergence treatment, the test plants were first grown to a height of 3 to 20 cm, depending on the plant habit, and only then treated. Here, the herbicidal compositions were suspended or emulsified in water as distribution medium and sprayed using finely distributing nozzles
(§2) The respective components A and B and/or C were formulated as 10% by weight strength emulsion concentrate and introduced to the spray liquor with the amount of solvent system used for applying the active compound. In the examples, the solvent used was water.
(§3) The test period extended over 21 days. During this time, the plants were tended, and their response to the treatments with active compound was evaluated.
(§4) The evaluation for the damage caused by the chemical compositions was carried out using a scale from 0 to 100%, compared to the untreated control plants. Here, 0 means no damage and 100 means complete destruction of the plants.
(§5) In the examples below, the value E which is to be expected if the activity of the individual compounds is just additive was calculated using the method of S. R. Colby (1967) “Calculating synergistic and antagonistic responses of herbicide combinations”, Weeds 15, p. 22 ff. E=X+Y−([…]) where • X=effect in percent using active compound A at an application rate a; • Y=effect in percent using active compound B at an application rate b; • E=expected effect (in %) of A+B at application rates a+b.
(§6) If the observed effect is higher than the value E calculated according to Colby, a synergistic effect is present.

[2] = test system: ABUTH; experiment: Greenhouse post-emergence herbicidal action against ABUTH; assay type: in vivo, Abutilon theophrasti
Excerpt: as §1, §2, §3, §4, §5, §6

[3] = test system: ALOMY; experiment: Greenhouse post-emergence herbicidal action against ALOMY; assay type: in vivo, Alopecurus myosuroides; conditions: 21 days
Excerpt: as §1, §2, §3, §4, §5, §6

[4] = test system: BIDPI; experiment: Greenhouse post-emergence herbicidal action against BIDPI; assay type: in vivo, Bidens pilosa
Excerpt: as §1, §2, §3, §4, §5, §6

[5] = test system: BRAPL; experiment: Greenhouse post-emergence herbicidal action against BRAPL; assay type: in vivo, Brachiaria plantaginea
Excerpt: as §1, §2, §3, §4, §5, §6

[6] = test system: POLPE; experiment: Greenhouse post-emergence herbicidal action against POLPE; assay type: in vivo, Polygonum persicaria; conditions: 21 days
Excerpt: as §1, §2, §3, §4, §5, §6

[7] = test system: AVEFA; experiment: Greenhouse post-emergence herbicidal action against AVEFA; assay type: in vivo, Avena fatua
Excerpt: as §1, §2, §3, §4, §5, §6

[8] = test system: ECHCG; experiment: Greenhouse post-emergence herbicidal action against ECHCG; assay type: in vivo, Echinochloa crus-galli
Excerpt: as §1, §2, §3, §4, §5, §6

[9] = test system: SETFA; experiment: Greenhouse post-emergence herbicidal action against SETFA; assay type: in vivo, Setaria faberii
Excerpt: as §1, §2, §3, §4, §5, §6

[10] = test system: POAPR; experiment: Pre-emergence herbicidal action against POAPR; assay type: in vivo, Poa pratensis; conditions: 21 days
Experimental: as §4
(§7) In the examples below, the mixtures were applied by the pre-emergence method. To this end, the test plants were initially sown and covered with a thin layer of soil. Afterward (i.e. prior to the germination of the test plants), the mixtures according to the invention were sprayed onto the soil as an aqueous spray liquor at the stated application rate. As in the post-emergence method described above, the test period was 21 days. The damage was then evaluated as described above using a scale from 0 to 100% damage in comparison to untreated control plants (0% damage).
(§8) A safener action is present if the damage to the crop plant caused by using a mixture according to the invention which contains a safener C) is less than the damage caused when active compound A or active compounds A and B are used without safener.

[11] = test system: TRFPR; experiment: Pre-emergence herbicidal action against TRFPR; assay type: in vivo, Trifolium pratense; conditions: 21 days
Experimental: as §4, §7, §8

[12] = test system: TRZAW; experiment: Pre-emergence safener action (crop damage) in TRZAW; assay type: in vivo, Triticum aestivum (Winter wheat); conditions: 21 days
Experimental: as §4, §7, §8

[13] = 21 days, application rate g/ha: I.7 1.95, b3.2 62.5
[14] = 21 days, application rate g/ha: I.7 3.91, b3.2 125
[15] = I.1 1.95 g/ha and/or b10.1 125 g/ha
[16] = I.1 3.91 g/ha and/or b10.1 250 g/ha
[17] = I.14 0.49 g/ha and/or b10.3 62.5 g/ha
[18] = I.14 0.98 g/ha and/or b10.3 125 g/ha
[19] = I.14 0.49 g/ha and/or b11.1 62.5 g/ha
[20] = I.14 0.98 g/ha and/or b11.1 125 g/ha
[21] = I.14 0.49 g/ha and/or b13.3 62.5 g/ha
[22] = I.14 0.98 g/ha and/or b13.3 125 g/ha
[23] = I.7 200 g/ha and/or c.1 200 g/ha
[24] = I.7 400 g/ha and/or c.1 400 g/ha
[25] = I.8 200 g/ha and/or c.1 200 g/ha
[26] = I.8 400 g/ha and/or c.1 400 g/ha

## CCO/N=C(\CC)C1=C(O)CC(c2c(C)cc(C)cc2C)CC1=O (stereo not drawn) [b1.1, tralkoxydim, reference compound]
[1]; 21 days, application rate g/ha: I.1 1.95, b1.1 62.5
  Herbicidal action against GALAP found: 0%
[1]; 21 days, application rate g/ha: I.1 3.91, b1.1 125
  Herbicidal action against GALAP found: 0%

## CCCC(=NOCC(C)Oc1ccc(Cl)cc1)C1=C(O)CC(C2CCCSC2)CC1=O (stereo not drawn) [b1.2, profoxydim, reference compound]
[2]; 21 days, application rate g/ha: I.1 1.95, b1.2 31.25
  Herbicidal action against ABUTH found: 30%
[2]; 21 days, application rate g/ha: I.1 3.91, b1.2 62.5
  Herbicidal action against ABUTH found: 40%

## COCc1cnc(C2=NC(C)(C(C)C)C(=O)N2)c(C(=O)O)c1 (stereo not drawn) [b2.1, imazamox, reference compound]
[3]; application rate g/ha: I.8 0.49, b2.1 7.81
  Herbicidal action against ALOMY found: 40%
[3]; application rate g/ha: I.8 0.98, b2.1 15.63
  Herbicidal action against ALOMY found: 70%

## CCc1cnc(C2=NC(C)(C(C)C)C(=O)N2)c(C(=O)O)c1 (stereo not drawn) [b2.2, imazethapyr, reference compound]
[4]; 21 days, application rate g/ha: I.8 0.49, b2.2 7.81
  Herbicidal action against BIDPI found: 20%
[4]; 21 days, application rate g/ha: I.8 0.98, b2.2 15.63
  Herbicidal action against BIDPI found: 20%

## COc1cc(OC)nc(NC(=O)NS(=O)(=O)c2ncccc2C(=O)N(C)C)n1 [b2.3, nicosulfuron, reference compound]
[5]; 21 days, application rate g/ha: I.14 0.49, b2.3 0.98
  Herbicidal action against BRAPL found: 70%
[5]; 21 days, application rate g/ha: I.14 0.98, b2.3 1.95
  Herbicidal action against BRAPL found: 70%
[3]; application rate g/ha: I.14 0.49, b2.3 0.98
  Herbicidal action against ALOMY found: 50%
[3]; application rate g/ha: I.14 0.98, b2.3 1.95
  Herbicidal action against ALOMY found: 60%

## CCNc1nc(Cl)nc(NC(C)C)n1 [b3.1, atrazine, reference compound]
[6]; application rate g/ha: I.7 1.95, b3.1 62.5
  Herbicidal action against POLPE found: 50%
[6]; application rate g/ha: I.7 3.91, b3.1 125
  Herbicidal action against POLPE found: 60%
[7]; 21 days, application rate g/ha: I.7 1.95, b3.1 62.5
  Herbicidal action against AVEFA found: 0%
[7]; 21 days, application rate g/ha: I.7 3.91, b3.1 125
  Herbicidal action against AVEFA found: 0%

## CN(C)C(=O)Nc1ccc(Cl)c(Cl)c1 [b3.2, diuron, reference compound]
[8]; [13]
  Herbicidal action against ECHCG found: 15%
[8]; [14]
  Herbicidal action against ECHCG found: 20%
[5]; [13]
  Herbicidal action against BRAPL found: 25%
[5]; [14]
  Herbicidal action against BRAPL found: 60%

## CC(C)c1ccc(NC(=O)N(C)C)cc1 [b3.3, isoproturon, reference compound]
[2]; 21 days, application rate g/ha: I.7 0.98, b3.3 31.25
  Herbicidal action against ABUTH found: 0%
[2]; 21 days, application rate g/ha: I.7 1.95, b3.3 62.5
  Herbicidal action against ABUTH found: 40%

## C[n+]1ccc(-c2cc[n+](C)cc2)cc1 [b3.4, paraquat, reference compound]
[2]; 21 days, application rate g/ha: I.7 0.98, b3.4 31.25
  Herbicidal action against ABUTH found: 0%
[2]; 21 days, application rate g/ha: I.7 1.95, b3.4 62.5
  Herbicidal action against ABUTH found: 40%

## CCOC(=O)/C(Cl)=C/c1cc(N2C(=O)C3=C(CCCC3)C2=O)ccc1Cl [b4.1, cinidon-ethyl, reference compound]
[6]; application rate g/ha: I.1 0.49, b4.1 0.98
  Herbicidal action against POLPE found: 40%
[6]; application rate g/ha: I.1 0.98, b4.1 1.95
  Herbicidal action against POLPE found: 50%

## O=C(Nc1ccc(F)cc1)c1cccc(Oc2cccc(C(F)(F)F)c2)n1 [b5.1, picolinafen, reference compound]
[6]; application rate g/ha: I.8 0.98, b5.1 7.81
  Herbicidal action against POLPE found: 30%
[6]; application rate g/ha: I.8 1.95, b5.1 15.63
  Herbicidal action against POLPE found: 40%
[5]; 21 days, application rate g/ha: I.8 0.98, b5.1 7.81
  Herbicidal action against BRAPL found: 20%
[5]; 21 days, application rate g/ha: I.8 1.95, b5.1 15.63
  Herbicidal action against BRAPL found: 20%

## CS(=O)(=O)c1ccc(C(=O)C2C(=O)CCCC2=O)c(Cl)c1 [b5.2, sulcotrione, reference compound]
[8]; 21 days, application rate g/ha: I.8 1.95, b5.2 31.25
  Herbicidal action against ECHCG found: 60%
[8]; 21 days, application rate g/ha: I.8 3.91, b5.2 62.5
  Herbicidal action against ECHCG found: 75%

## CC(C)N.O=C(O)CNCP(=O)(O)O [b6.1, glyphosate isopropylammonium salt, reference compound]
[7]; 21 days, application rate g/ha: I.7 1.95, b6.1 125
  Herbicidal action against AVEFA found: 0%
[7]; 21 days, application rate g/ha: I.7 3.91, b6.1 250
  Herbicidal action against AVEFA found: 0%

## CP(=O)(O)CCC(N)C(=O)O (stereo not drawn) [b7.1, glufosinate ammonium salt, reference compound]
[6]; application rate g/ha: I.7 1.95, b7.1 250
  Herbicidal action against POLPE found: 0%
[6]; application rate g/ha: I.7 3.91, b7.1 500
  Herbicidal action against POLPE found: 30%
[7]; 21 days, application rate g/ha: I.7 1.95, b7.1 250
  Herbicidal action against AVEFA found: 0%
[7]; 21 days, application rate g/ha: I.7 3.91, b7.1 500
  Herbicidal action against AVEFA found: 20%

## CCC(CC)Nc1c([N+](=O)[O-])cc(C)c(C)c1[N+](=O)[O-] [b9.1, pendimethalin, reference compound]
[7]; 21 days, application rate g/ha: I.1 0.98, b9.1 125
  Herbicidal action against AVEFA found: 10%
[7]; 21 days, application rate g/ha: I.1 1.95, b9.1 250
  Herbicidal action against AVEFA found: 20%

## COC[C@H](C)N(C(=O)CCl)c1c(C)csc1C [b10.1, dimethenamid-P, reference compound]
[7]; [15]
  Herbicidal action against AVEFA found: 30%
[7]; [16]
  Herbicidal action against AVEFA found: 30%
[4]; [15]
  Herbicidal action against BIDPI found: 25%
[4]; [16]
  Herbicidal action against BIDPI found: 25%

## CCOCN(C(=O)CCl)c1c(C)cccc1CC [b10.2, acetochlor, reference compound]
[4]; 21 days, application rate g/ha: I.14 1.95, b10.2 250
  Herbicidal action against BIDPI found: 30%
[4]; 21 days, application rate g/ha: I.14 3.91, b10.2 500
  Herbicidal action against BIDPI found: 70%

## CCc1cccc(C)c1N(C(=O)CCl)[C@@H](C)COC [b10.3, S-metolachlor, reference compound]
[1]; [17]
  Herbicidal action against GALAP found: 0%
[1]; [18]
  Herbicidal action against GALAP found: 25%
[9]; [17]
  Herbicidal action against SETFA found: 30%
[9]; [18]
  Herbicidal action against SETFA found: 60%

## CCC(C)(CC)c1cc(NC(=O)c2c(OC)cccc2OC)on1 [b11.1, isoxaben, reference compound]
[1]; [19]
  Herbicidal action against GALAP found: 0%
[1]; [20]
  Herbicidal action against GALAP found: 0%
[9]; [19]
  Herbicidal action against SETFA found: 0%
[9]; [20]
  Herbicidal action against SETFA found: 10%

## COc1c(Cl)ccc(Cl)c1C(=O)O [b13.2, dicamba, reference compound]
[8]; I.14 1.95 g/ha and/or b13.2 125 g/ha
  Herbicidal action against ECHCG found: 0%
[8]; I.14 3.91 g/ha and/or b13.2 250 g/ha
  Herbicidal action against ECHCG found: 30%

## CNC.O=C(O)COc1ccc(Cl)cc1Cl [b13.3, 2,4-D dimethylammonium salt, reference compound]
[5]; [21]
  Herbicidal action against BRAPL found: 20%
[5]; [22]
  Herbicidal action against BRAPL found: 50%
[2]; [21]
  Herbicidal action against ABUTH found: 25%
[2]; [22]
  Herbicidal action against ABUTH found: 65%

## CCOC(=O)C1=NN(c2ccc(Cl)cc2Cl)C(C)(C(=O)OCC)C1 (stereo not drawn) [c.1, mefenpyr-diethyl, reference compound]
[10]; [23]
  Herbicidal action against POAPR: 0%
[10]; [24]
  Herbicidal action against POAPR: 0%
[10]; [25]
  Herbicidal action against POAPR: 0%
[10]; [26]
  Herbicidal action against POAPR: 0%
[11]; [23]
  Herbicidal action against TRFPR: 5%
[11]; [24]
  Herbicidal action against TRFPR: 5%
[11]; [25]
  Herbicidal action against TRFPR: 5%
[11]; [26]
  Herbicidal action against TRFPR: 5%
[12]; [23]
  Damage to crop plant TRZAW: 0%
[12]; [24]
  Damage to crop plant TRZAW: 0%
[12]; [25]
  Damage to crop plant TRZAW: 0%
[12]; [26]
  Damage to crop plant TRZAW: 0%
